Where a name gives a salt, the structure may show the parent alone. Read-outs that look alike come from different tables or passages of the source. One block for each molecule: values may come before it.
Key:
Assay type in all cases: physicochemical
[1] = Hygroscopicity / water content (Karl Fischer analysis)
From the text: The present invention provides (S)-7-[(4,4′-bipiperidin- 1-yl)carbonyl]-2,3,4,5-tetrahydro-4-methyl-3-oxo-1H-1,4-benzodiazepine-2-acetic acid, hydrochloride, formula (I), as a novel material, and, in particular, as a pharmaceutically acceptable form. The material crystallizes preferably with one mole of HCl, and appears to exist in a generally anhydrous form. Although small amounts of water may be detected by Karl Fischer analysis, this is generally less than 1-2% w/w of the drug substance, and it appears to be consistent irrespective of the storage conditions. […] Accordingly, the hydrochloride salt form offers significant advantages for bulk material consistency, handling, and formulation.

[2] = Thermal stability of solid samples (3 days at 100° C., hplc); conditions: for increase in organic impurities: hplc, by area
[3] = Solubility in water
[4] = Thermal stability over an extended period (shelf life); conditions: impairs shelf life

- water detected by Karl Fischer analysis ([1]; consistent irrespective of the storage conditions): 1-2 % w/w
- Hygroscopicity (% w/w Karl Fischer analysis) ([1]; t = 0, hydrochloride): 0.9 % w/w
- Hygroscopicity (% w/w Karl Fischer analysis) ([1]; t = 21 days, hydrochloride): 0.8 % w/w
- increase in organic impurities ([2]; hydrochloride): no increase
- Thermal Stability ([2]; hydrochloride): Stable
- solubility in water relative to the zwitterion [3]: about ten
SMILES: CN1Cc2cc(C(=O)N3CCC(C4CCNCC4)CC3)ccc2N[C@@H](CC(=O)O)C1=O [HCl Salt, (S)-7-[(4,4′-bipiperidin-1-yl)carbonyl]-2,3,4,5-tetrahydro-4-methyl-3-oxo-1H-1,4-benzodiazepine-2-acetic acid, hydrochloride]
- dissolution and solubility in water (in words) [3]: enhanced dissolution and solubility in water

- water taken up on equilibration ([1]; equilibrating species): about six
- hygroscopicity (in words) ([1]; material prepared according to WO 95/18619): hygroscopic
- Hygroscopicity (% w/w Karl Fischer analysis) ([1]; t = 0): 5.6 % w/w
- Hygroscopicity (% w/w Karl Fischer analysis) ([1]; t = 21 days): 20.1 % w/w
- Thermal Stability [2]: some degradation,
- increase in organic impurities [2]: impurities by 1.3% (hplc,
SMILES: CN1Cc2cc(C(=O)N3CCC(C4CCNCC4)CC3)ccc2N[C@@H](CC(=O)O)C1=O [Zwitterion, (S)-7-[(4,4′-bipiperidin-1-yl)carbonyl]-2,3,4,5-tetrahydro-4-methyl-3-oxo-1H-1,4-benzodiazepine-2-acetic acid]

SMILES: CN1Cc2cc(C(=O)N3CCC(C4CCNCC4)CC3)ccc2N[C@@H](CC(=O)O)C1=O [trifluoroacetate salt]
- thermal stability for an extended period [4]: not thermally stable for an extended period
